According to patent US20180064730A1 (priority 2014, published 2018):
Where “and” joins values, the source holds several entries; their conditions need not be identical. Equal values may be shown once. Entries after “also recorded” stand apart in the source; their conditions may differ. Read-outs that look alike come from different tables or passages of the source.

What was measured:
[1] = test system: IL-8 secretion from CF lung epithelial cells; test: Suppression of constitutive IL-8 secretion from CF lung epithelial cells; type: cell-based, human; conditions: for IC50: constitutive IL-8 hypersecretion, read-out: K50 (concentration causing a 50% reduction of IL-8 secretion)
From the text: Analysis of cardiac glycoside activities identifies a structure-activity-relationship for IL-8 suppression. […] Using all the data we were also able to derive a structure-activity relationship (see Table 1). Briefly, suppression of IL-8 secretion from CF lung epithelial cells is optimally promoted by the presence of glycosyl moieties at the 3-position of the cholesterol nucleus, and by the absence of oxygen-containing substitutions at or near the 12-position on the C ring. Activity declines when glycosyl moieties are absent from the 3-position, and when oxygen-containing substitutions are made at or near the 12-position on the C ring. […] We therefore give the equatorial 12-position and its neighbors crucial negative pharmacophoric importance, and glycosidic substitution at the 3-position positive pharmacophoric importance for the control of IL-8 secretion from CF lung epithelial cells.
(§1) Previously published data had implicated a dysfunctional TNFα/NFκB signaling pathway as responsible for the pro-inflammatory phenotype of the CF lung. […] (46 Srivastava et al, 2004) (47 Yang Q, et al, 2005).

[2] = test system: CF children; conditions: CF vs control children; cited from earlier work
[3] = test system: TNFα/NFκB signaling pathway; test: Reverse Phase Protein Microarray of IB3-1 and CFTR-repaired IB3-1/S9 cells; type: cell-based, human; conditions: ID90 concentrations; IB3-1 and IB3-1/S9 cells
From the text: as §1

[4] = target: T1, TNF-alpha-activated TNFR and TRADD (Homo sapiens, UniProt P19438+Q15628); test: Interaction between TNF-alpha-activated TNFR and TRADD
T1 sequence (Q15628 1-312): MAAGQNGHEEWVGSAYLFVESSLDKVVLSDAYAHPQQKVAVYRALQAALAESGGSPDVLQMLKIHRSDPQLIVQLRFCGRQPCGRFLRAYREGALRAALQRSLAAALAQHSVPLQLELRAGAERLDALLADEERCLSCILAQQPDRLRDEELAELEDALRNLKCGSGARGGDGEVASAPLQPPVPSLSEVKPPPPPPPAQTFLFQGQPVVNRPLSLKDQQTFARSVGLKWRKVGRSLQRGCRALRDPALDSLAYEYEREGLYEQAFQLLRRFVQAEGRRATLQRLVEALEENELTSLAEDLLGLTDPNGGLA
T1 sequence (P19438 22-455 limits assumed): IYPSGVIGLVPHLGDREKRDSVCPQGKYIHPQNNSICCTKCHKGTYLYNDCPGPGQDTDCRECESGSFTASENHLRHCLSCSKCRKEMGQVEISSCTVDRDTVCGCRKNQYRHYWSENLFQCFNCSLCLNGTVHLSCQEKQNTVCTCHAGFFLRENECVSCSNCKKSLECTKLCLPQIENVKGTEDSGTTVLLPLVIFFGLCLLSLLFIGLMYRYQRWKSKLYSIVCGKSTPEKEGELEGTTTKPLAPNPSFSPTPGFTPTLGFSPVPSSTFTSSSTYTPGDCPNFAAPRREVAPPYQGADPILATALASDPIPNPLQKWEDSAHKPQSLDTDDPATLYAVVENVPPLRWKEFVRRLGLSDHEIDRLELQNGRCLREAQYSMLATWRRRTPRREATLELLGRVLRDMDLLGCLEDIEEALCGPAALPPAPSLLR
From the text: Increased expression of TRADD is associated with a greater rate of decline in CF lung function. […] Trend-lines are based on data for female CF patients, who make up the majority of the patients.

[5] = test system: CF patients; test: Phase II clinical trial of digitoxin in cystic fibrosis: adverse events; conditions: for Pulm, upper_resp adverse events (cases) / Dermatolog adverse events / Gastrointestinal adverse events / General adverse events / Musculoskel adverse events / Neurological adverse events / Reproductive adverse events / Total (all) adverse events (cases): 28 days, n = 8; for Incidence Rate, all adverse events / Incidence Rate, pulmonary adverse events: person-time 224
Description: Experiment# 1.1. Study design and methods: The study was a randomized, double-blind, placebo controlled, repeat dosing escalation trial. Adults 18-45 years of age with a diagnosis of CF and meet Inclusion/exclusion criteria were selected for the trial. The 24 evaluable patients were studied at a single site, and randomized with respect to drug treatment and placebo at a ratio of 2:1, respectively. Screening included a 24 hour Holter monitor to screen for possible for baseline dysrhythmias. […] Dosing was once a day for 28 days with 8 patients in each group.
The inclusion criteria included (i) male or female, 18 to 45 years of age; (ii) confirmed diagnosis of CF by sweat test (a sweat chloride concentration≧60 meq/L), and a genotype consistent with a CF diagnosis; (iii) FEV 1, % PRED≧40%; (iv) clinically stable with no evidence of acute upper respiratory or lower respiratory tract infection or current pulmonary exacerbation; (v) ability to perform spirometry; (vi) weight≧45 kg at screening and at visit #1 (dosing).
During this period, subjects were not taking macrolide antibiotics.

[6] = test system: Wuhan influenza virus induced lung inflammation; test: Rodent influenza lung inflammation model, lung cytokines/chemokines by ELISA; type: in vivo, cotton rat
Description: Applicant previously conducted a study on a mammal, a rodent with induced lung inflammation from Wuhan influenza virus.
Lung tissue was harvested on day 7, and assayed in terms of pg/ml for iFN-Gamma, GRO/KC, MTP-2, TNF-ALPHA, IL-1B, MCP-1. TGF-Beta, and GM-CSF. Rodents lack IL-8, and instead have GRO/KC and MIP-2.
Methods: The assays for different cytokines and chemokines were performed with commercial micro-sandwich ELISA assays. (Searchlight System, Pierce-Thermo). The results shown are for 22 patients, including 14 females and 8 males.

[7] = test system: TNFalpha-activated NFκB activation and IL-8 expression; conditions: CF airway epithelial cells; cited from earlier work
[8] = cited from earlier work
[9] = test system: control patients / heart failure patients; conditions: cited from earlier work
[10] = 3, 10 and 30 mg/kg daily, lung harvested day 7

Compound: C[C@]12CC[C@H](O)C[C@H]1CC[C@@H]1[C@@H]2C[C@@H](O)[C@]2(C)[C@@H](C3=CC(=O)OC3)CC[C@]12O [Digoxigenin]
- IC50 ([1]; Homo sapiens, Epithelial cell): 0.0341 µM

Compound: CC(=O)O[C@H]1CC[C@]2(C=O)[C@H]3CC[C@]4(C)[C@@H](C5=CC(=O)OC5)CC[C@]4(O)[C@@H]3CC[C@]2(O)C1 [Acetyl Strophanthidin]
- IC50 [1]: 0.117 µM

Compound: CO[C@H]1C[C@H](O[C@H]2CC[C@@]3(C)[C@H](CC[C@@H]4[C@@H]3CC[C@]3(C)[C@@H](C5=CC(=O)OC5)[C@@H](OC(C)=O)C[C@]43O)C2)O[C@@H](C)[C@@H]1O [Oleandrin]
- IC50 ([1]; Homo sapiens, Epithelial cell): 0.002 µM

Compound: C[C@]12CC[C@H](O)C[C@H]1CC[C@@H]1[C@@H]2CC[C@]2(C)[C@@H](C3=CC(=O)OC3)CC[C@]12O [Digitoxigenin]
- IC50 ([1]; Homo sapiens, Epithelial cell): 0.0736 µM

Compound: C[C@H]1O[C@@H](O[C@H]2[C@@H](O)C[C@H](O[C@H]3[C@@H](O)C[C@H](O[C@H]4CC[C@@]5(C)[C@H](CC[C@@H]6[C@@H]5C[C@@H](O)[C@]5(C)[C@@H](C7=CC(=O)OC7)CC[C@]65O)C4)O[C@@H]3C)O[C@@H]2C)C[C@H](O)[C@@H]1O [Digoxin]
- IC50 ([1]; Homo sapiens, Epithelial cell): 0.027 µM
- IC50 [1]: 0.0271 µM
- exercise capacity or exercising cardiac function [2]: no difference

Compound: C[C@H]1O[C@@H](O[C@H]2[C@@H](O)C[C@H](O[C@H]3[C@@H](O)C[C@H](O[C@H]4CC[C@@]5(C)[C@H](CC[C@@H]6[C@@H]5CC[C@]5(C)[C@@H](C7=CC(=O)OC7)CC[C@]65O)C4)O[C@@H]3C)O[C@@H]2C)C[C@H](O)[C@@H]1O [Digitoxin]
- IC50 ([1]; Homo sapiens, Epithelial cell): ~0.0009 µM
- CF-related constitutive phosphorylation of IKBα [3]: significantly blocked
- CF-related constitutive phosphorylation of NFκB,p65 [3]: significantly blocked
- phosphorylation of IKKα [3]: somewhat suppressed
- interaction between TNF-alpha-activated TNFR and TRADD [4]: blocks
- Pulm, upper_resp adverse events (cases) ([5]; 0.05 mg by mouth daily): 9
- Dermatolog adverse events ([5]; 0.05 mg daily): 0
- Gastrointestinal adverse events ([5]; 0.05 mg daily): 5
- General adverse events ([5]; 0.05 mg daily): 3
- Musculoskel adverse events ([5]; 0.05 mg daily): 2
- Neurological adverse events ([5]; 0.05 mg daily): 8
- Reproductive adverse events ([5]; 0.05 mg daily): 1
- Total (all) adverse events (cases) ([5]; 0.05 mg daily): 29
- Incidence Rate, all adverse events ([5]; 0.05 mg daily): 0.1295
- Incidence Rate, pulmonary adverse events ([5]; 0.05 mg daily): 0.04018
- Inc. rate diff., all adverse events ([5]; 0.05 mg vs placebo): −0.008929
- Inc. rate diff., pulmonary adverse events ([5]; 0.05 mg vs placebo): −0.008929
- Prev. frac. pop, all adverse events ([5]; 0.05 mg vs placebo): 0.03571
- Prev. frac. pop, pulmonary adverse events ([5]; 0.05 mg vs placebo): 0.09091
- prev. frac. ex., all adverse events ([5]; 0.05 mg vs placebo): 0.06897
- prev. frac. ex., pulmonary adverse events ([5]; 0.05 mg vs placebo): 0.1818
- reduction in pulmonary, upper respiratory adverse events, significance ([5]; 0.05 mg/day vs placebo): not statistically significant
- Pulm, upper_resp adverse events (cases) ([5]; 0.10 mg by mouth daily): 2
- Dermatolog adverse events ([5]; 0.10 mg daily): 1
- Gastrointestinal adverse events ([5]; 0.10 mg daily): 5
- General adverse events ([5]; 0.10 mg daily): 3
- Musculoskel adverse events ([5]; 0.10 mg daily): 1
- Neurological adverse events ([5]; 0.10 mg daily): 2
- Reproductive adverse events ([5]; 0.10 mg daily): 0
- Total (all) adverse events (cases) ([5]; 0.10 mg daily): 15
- Incidence Rate, all adverse events ([5]; 0.10 mg daily): 0.06696-3 and 0.06696
- Incidence Rate, pulmonary adverse events ([5]; 0.10 mg daily): 0.008929
- Inc. rate diff., all adverse events ([5]; 0.10 mg vs 0.05 mg): −0.0625
- Inc. rate diff., pulmonary adverse events ([5]; 0.10 mg vs 0.05 mg): −0.03125
- Prev. frac. pop, all adverse events ([5]; 0.10 mg vs 0.05 mg): 0.2414
- Prev. frac. pop, pulmonary adverse events ([5]; 0.10 mg vs 0.05 mg): 0.3889
- prev. frac. ex., all adverse events ([5]; 0.10 mg vs 0.05 mg): 0.4828
- prev. frac. ex., pulmonary adverse events ([5]; 0.10 mg vs 0.05 mg): 0.7778
- Inc. rate diff., all adverse events ([5]; 0.10 mg vs placebo): −0.05357
- Inc. rate diff., pulmonary adverse events ([5]; 0.10 mg vs placebo): −0.04018.
- Prev. frac. pop, all adverse events ([5]; 0.10 mg vs placebo): 0.2222
- Prev. frac. pop, pulmonary adverse events ([5]; 0.10 mg vs placebo): 0.4091
- prev. frac. ex., all adverse events ([5]; 0.10 mg vs placebo): 0.4444
- prev. frac. ex., pulmonary adverse events ([5]; 0.10 mg vs placebo): 0.8182
- reduction in pulmonary, upper respiratory adverse events, significance ([5]; 0.10 mg/day (high dose) vs 0.05 mg/day (low dose)): statistically significant
- reduction in pulmonary, upper respiratory adverse events, significance ([5]; 0.10 mg/day vs placebo): statistically significant
- serious adverse events ([5]; clinical trial in CF patients): no serious adverse events
- GRO/KC in lung tissue [6, 10]: significant reductions; also recorded: suppressed
- IFN-gamma in lung tissue [6, 10]: significant reductions
- IL-1B in lung tissue [6, 10]: No significant changes
- MCP-1 in lung tissue [6, 10]: significant reductions
- MIP-2 in lung tissue [6, 10]: significant reductions; also recorded: suppressed
- TGF-B in lung tissue [6, 10]: No significant changes
- TNF-alpha in lung tissue [6, 10]: significant reductions; also recorded: reduced
- lung inflammation in rodent model ([6]; experimental model of lung inflammation): profound, dose-dependent reduction
- TNFalpha-activated NFκB activation and IL-8 expression [7]: blocks
- bioavailable ([8]; given by mouth): 100%
- bound to blood and tissue proteins ([8]; human, in vivo): 90%
- incidence of adverse events vs digoxin ([9]; U.S. 1995-1998 retrospective, heart failure patients): approximately three-fold lower incidence
- side effects ([9]; control patients, ca. 30 nM in the circulation): only modest, or in many cases, undetectable side effects

Compound: Digitoxigenin 3,12-diAc
- activity for suppression of IL-8 secretion [1]: Activity is altogether lost

Compound: C[C@@H]1O[C@@H](O[C@H]2C[C@@H](O)[C@]3(CO)[C@H]4[C@H](O)C[C@]5(C)[C@@H](C6=CC(=O)OC6)CC[C@]5(O)[C@@H]4CC[C@]3(O)C2)[C@H](O)[C@H](O)[C@H]1O [Ouabain]
- IC50 ([1]; Homo sapiens, Epithelial cell): 0.0079 µM
